Read-outs that look alike come from different tables or passages of the source.
Assays:
adenosine A1 receptor = biological target: T1, adenosine A1 receptor (Rattus norvegicus, UniProt P25099); assay: Adenosine Receptor Binding - A1 Receptor Affinity (RBA1), [3H]-N6-cyclohexyladenosine displacement; settings: [3H]-CHA 1.0 nM, rat brain membranes, 25° C., one hour; read-out: RBA-1, IC50 for adenosine A1 receptor affinity
T1 construct: Whole brain minus cerebellum and brainstem from male Long Evans rats; from tissue; host or cells: whole brain minus cerebellum and brainstem, male Long Evans rats (membranes)
T1 sequence (P25099 1-326): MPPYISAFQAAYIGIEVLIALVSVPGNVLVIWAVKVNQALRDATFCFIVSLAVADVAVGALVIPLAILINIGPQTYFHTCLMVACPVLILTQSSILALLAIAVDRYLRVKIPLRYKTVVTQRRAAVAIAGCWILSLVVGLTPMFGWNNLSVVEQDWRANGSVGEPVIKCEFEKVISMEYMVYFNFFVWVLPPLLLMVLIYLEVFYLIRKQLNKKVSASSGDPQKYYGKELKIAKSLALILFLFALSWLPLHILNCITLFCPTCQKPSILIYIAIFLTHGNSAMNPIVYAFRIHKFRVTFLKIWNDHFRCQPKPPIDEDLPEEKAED
Method: Whole brain minus cerebellum and brainstem from male Long Evans rats (150-200 g) was homogenized in 30 volumes of ice-cold 0.05M Tris-HCl buffer pH 7.7 using a Brinkman Polytron PT-10, (setting number 6 for 20 seconds) and centrifuged for ten minutes at 20,000×g (Sorvall RC-2), 4° C. The supernatant was discarded, and the pellet was resuspended and centrifuged as before. […] The homogenate was again centrifuged, and the final pellet was resuspended in ice-cold 0.05 M Tris-HCl buffer pH 7.7 to a concentration of 20 mg/ml original wet tissue weight and used immediately. […] Incubation volume was 2 ml. […] The filters were rinsed three times with 5 ml of ice cold 0.05 M Tris-HCl buffer pH 7.7. The radio-labeled ligand retained on the filter was measured by liquid scintillation spectrophotometry after shaking the filters for one hour or longer on a mechanical shaker in 10 ml of Beckman Ready-Solv HP scintillation cocktail. […] The Hill coefficient was calculated by linear regression of the line obtained by plotting the log of the bound radioligand vs the log of the [formula] The maximal number of binding sites (Bmax) was calculated from the Scatchard plot.

Type 3 Phosphodiesterase = assay: Phosphodiesterase (PDE) Inhibition, Type 3 Phosphodiesterase; format: biochemical, bovine (coronary arteries); settings: Type 3 PDE, at 10^-5 M, substrate 3H-cAMP 1.0 μM
Text: (§1) The method of Thompson, et al (Thompson, W. J., Terasaki, W. L., Epstein, P. M., Strada, S. J., Adv. Cyclic Nucleotide Res., 10:69-92, 1979), with minor modifications, was used to isolate phosphodiesterases from vascular smooth muscle. Bovine coronary arteries (right, anterior descending, and left circumflex arteries) from hearts obtained from a local slaughterhouse were used for these studies. Arteries from two hearts were used for each isolation. Hearts were kept on ice and the arteries were dissected within two hours after the animals were sacrificed. After removing all fat and connective tissue, the arteries were everted, cut into cubes with a single edge razor blade and homogenized with a Brinkman Polytron three times at a rheostat setting of 10.0 in four volumes of the PDE isolation buffer (10 mM Tris-HCl/pH 7.5, 2 mM MgCl2, and 1 mM dithiothreitol). The resulting homogenate was sonicated (30 sec/ml homogenate) and then centrifuged at 30,000 xg for 20 minutes. This and all subsequent procedures were performed at 4° C. The resulting supernatant was filtered through four layers of gauze, and applied to a DEAE-cellulose column (30×1.5 cm), prepared as described by Cheung (Cheung, W. Y., Biochim. Biophys. Acta, 191:303-315, 1969), and equilibrated with freshly prepared 70 mM sodium acetate/5 mM 2-mercaptoethanol (pH 6.5). The column was then washed with 2-3 bed volumes of sodium acetate/2-mercaptoethanol, after which the phosphodiesterases were eluted from the column using a continuous 70-1,000 mM sodium acetate gradient (pH 6.5, containing 5 mM 2-mercaptoethanol; total volume 400 ml). The flow rate was approximately equal to 25 ml/hr. Eight ml fractions were collected and assayed for cyclic AMP- and cyclic GMP-phosphodiesterase activity in the presence and absence of 0.1 units of calmodulin and 10 mM CaCl2. Appropriate fractions were pooled and dialyzed against 70 mM sodium acetate/5 mM 2-mercaptoethanol for 20 hours.
(§2) Following complete separation, the combined phosphodiesterase fractions were concentrated to 14% of the original volume using an Amicon ultrafiltration cell fitted with a UM-10 membrane, according to the method of Wells, et al (Wells, J. N., Baird, C. E., Wu, Y. J., Hardman, J. G., Biochim. Biophys. Acta, 384:430-442, 1975). Following concentration, the protein was then diluted to 65% with ethylene glycol monoethyl ether, and stored at -20° C.
(§3) Phosphodiesterase activity was measured as described previously (Weishaar, P. E., Quade, M., Boyd, D., Schenden, J., Mark, S. S., Kaplan, H. R., Drug Devel. Res., 3:517-534, 1983), in a reaction medium containing 40 mM Tris-HCl (pH 8.0), 5 mM MgCl and 4 mM 2-mercaptoethanol. Unless otherwise noted, the concentration of substrate (^3 H-cyclic AMP or ^3 H-cyclic GMP) was 1.0 μM. All agents examined were dissolved in dimethyl sulfoxide (DMSO). Final concentration of the reaction medium was either 2.5% (cardiac and platelet studies) or 1.25% (smooth muscle studies). This concentration of DMSO produced an approximately 10% inhibition of enzyme activity.

[1] = system: pentobarbital-anesthetized dog; assay: In Vivo Myocardial Inotropic Activity in Anesthetized Dog (CVAD); design: species or system dog (adult mongrel); settings: for change in vivo at 0.1 mg/kg / change in vivo at 0.3 mg/kg / change in vivo at 1 mg/kg / change in vivo at 3.1 mg/kg / change in vivo at 10 mg/kg / change in vivo at 0.31 mg/kg: Canis lupus familiaris, iv; for change in vivo at 0.3 mg/kg: 0.30 mg/kg IV; for change in vivo at 10 mg/kg: 10.00 mg/kg IV
Method: This test procedure is described in the following paragraphs.
This screen consists of determining the effects of increasing intravenous doses of compound on mycardial contractility (dP/dt max of left ventricular blood pressure), heart rate, and aortic blood pressure of the pentobarbital-anesthetized dog.
Adult mongrel dogs of either sex are anesthetized with pentobarbital, 35 mg/kg, IV, and are subsequently maintained under anesthesia with a continuous infusion of pentobarbital, 3.5 mg/kg/hour. The trachea is intubated but the animals are permitted to breathe spontaneously. A cannula is inserted into the femoral vein for administrating test agents. A Millar catheter tip pressure transducer or a fluid filled catheter is inserted into the ascending aorta via the femoral artery for measuring aortic blood pressure. A Millar catheter tip pressure transducer is passed into the left ventricle via the left carotid artery for measuring left ventricular blood pressure. Needle electrodes are placed subcutaneously for recording a lead II electrocardiogram (ECG).
Left ventricular and aortic blood pressures are recorded on a strip chart recorder. Heart rate, using a biotachometer triggered from the R wave of the ECG, and the first derivative of left ventricular blood pressure (dP/dt), obtained with a differentiator amplifier coupled to the corresponding pressure amplifier, are also recorded. A period of at least 30 minutes is utilized to obtain control data prior to administration of test compound.
Ethanol or dimethylacetamide can be used as solvents if adequate dilutions can be made. Appropriate vehicle controls are administered when needed.
Each dose of the test compound is administered in a volume of […] over a period of one minute.

Type 1 Phosphodiesterase = assay: Phosphodiesterase (PDE) Inhibition, Type 1 Phosphodiesterase; format: biochemical, bovine (coronary arteries); settings: Type 1 PDE, at 10^-5 M; for % Inhibition of hydrolysis of 3H-cAMP: substrate 3H-cAMP 1.0 μM; for % Inhibition of hydrolysis of 3H-cGMP: substrate 3H-cGMP 1.0 μM
Text: as §1, §2, §3

[2] = 0.10 mg/kg IV, read-out: Percent Change Blood Pressure
[3] = 0.10 mg/kg IV, read-out: Percent Change Heart Rate
[4] = 0.10 mg/kg IV, read-out: Percent Change Myocardial Contractility
[5] = read-out: Percent Change Blood Pressure
[6] = read-out: Percent Change Heart Rate
[7] = read-out: Percent Change Myocardial Contractility
[8] = 1.00 mg/kg IV, read-out: Percent Change Blood Pressure
[9] = 1.00 mg/kg IV, read-out: Percent Change Heart Rate
[10] = 1.00 mg/kg IV, read-out: Percent Change Myocardial Contractility
[11] = 3.10 mg/kg IV, read-out: Percent Change Blood Pressure
[12] = 3.10 mg/kg IV, read-out: Percent Change Heart Rate
[13] = 3.10 mg/kg IV, read-out: Percent Change Myocardial Contractility
[14] = 0.31 mg/kg IV, read-out: Percent Change Heart Rate
[15] = 0.31 mg/kg IV, read-out: Percent Change Myocardial Contractility

| SMILES | IC50 (adenosine A1 receptor) | % Inhibition of hydrolysis of 3H-cAMP (Type 3 Phosphodiesterase) | % Inhibition of hydrolysis of 3H-cAMP (Type 1 Phosphodiesterase) | % Inhibition of hydrolysis of 3H-cGMP (Type 1 Phosphodiesterase) | change in vivo at 0.1 mg/kg [1, 2] | change in vivo at 0.1 mg/kg [1, 3] | change in vivo at 0.1 mg/kg [1, 4] | change in vivo at 0.3 mg/kg [1, 5] | change in vivo at 0.3 mg/kg [1, 6] | change in vivo at 0.3 mg/kg [1, 7] | change in vivo at 1 mg/kg [1, 8] | change in vivo at 1 mg/kg [1, 9] | change in vivo at 1 mg/kg [1, 10] | change in vivo at 3.1 mg/kg [1, 11] | change in vivo at 3.1 mg/kg [1, 12] | change in vivo at 3.1 mg/kg [1, 13] | change in vivo at 10 mg/kg [1, 7] | change in vivo at 0.31 mg/kg [1, 14] | change in vivo at 0.31 mg/kg [1, 15] | Percent Change Blood Pressure ([1]; 0.10 mg/kg IV) | also measured |
| --- | --- | --- | --- | --- | --- | --- | --- | --- | --- | --- | --- | --- | --- | --- | --- | --- | --- | --- | --- | --- | --- |
| Cc1ccc(-c2nc3c(C)nn(C)c3c(=O)[nH]2)cc1 [Example 8, 1,3-Dimethyl-5-(4-methylphenyl)pyrazolo[4,3-d]pyrimidine-7-one] | 417 nM | 15% | 14% | 15% | -1% | 5% | 7% | 0% | 5% | 10% | 3% | 6% | 20% | 3% | 10% | 22% | 82% |  |  |  |  |
| Cc1nn(C)c2c(=O)[nH]c(-c3ccc(N)cc3)nc12 [Example 11, 1,3-Dimethyl-5-(4-aminophenyl)pyrazolo[4,3-d]pyrimidine-7-one] | 385 nM | 32% | 19% | 15% |  | 1% | 9% |  |  |  |  | 5% | 25% |  | 15% | 66% |  | 3% | 17% | 1/1 | Percent Change Blood Pressure ([1]; 0.31 mg/kg IV): 5/3; Percent Change Blood Pressure ([1]; 1.00 mg/kg IV): 1/0 |
| Cc1nn(C)c2c(=O)[nH]c(-c3ccc(Cl)c(Cl)c3)nc12 [Example 15, 1,3-Dimethyl-5-(3,4-dichlorophenyl)pyrazolol[4,3-d]-pyrimidine-7one] | 887 nM | 0% | 5% | 3% |  | 7% | 8% |  |  |  |  | 9% | 13% |  | 12% | 13% |  | 7% | 10% | 1/2 | Percent Change Blood Pressure ([1]; 3.10 mg/kg IV): 1/2 |

Now from value to molecule, other results behind:

| IC50 (adenosine A1 receptor) | % Inhibition of hydrolysis of 3H-cAMP (Type 3 Phosphodiesterase) | % Inhibition of hydrolysis of 3H-cAMP (Type 1 Phosphodiesterase) | % Inhibition of hydrolysis of 3H-cGMP (Type 1 Phosphodiesterase) | SMILES | change in vivo at 0.1 mg/kg [1, 2] | change in vivo at 0.1 mg/kg [1, 3] | change in vivo at 0.1 mg/kg [1, 4] | change in vivo at 0.3 mg/kg [1, 5] | change in vivo at 0.3 mg/kg [1, 6] | change in vivo at 0.3 mg/kg [1, 7] | change in vivo at 1 mg/kg [1, 8] | change in vivo at 1 mg/kg [1, 9] | change in vivo at 1 mg/kg [1, 10] | change in vivo at 3.1 mg/kg [1, 11] | change in vivo at 3.1 mg/kg [1, 12] | change in vivo at 3.1 mg/kg [1, 13] | change in vivo at 10 mg/kg [1, 7] | change in vivo at 0.31 mg/kg [1, 14] | change in vivo at 0.31 mg/kg [1, 15] | Percent Change Blood Pressure ([1]; 0.10 mg/kg IV) | also measured |
| --- | --- | --- | --- | --- | --- | --- | --- | --- | --- | --- | --- | --- | --- | --- | --- | --- | --- | --- | --- | --- | --- |
| 880 nM | 1% | 16% | 6% | Cc1nn(C)c2c(=O)[nH]c(-c3ccc([N+](=O)[O-])cc3)nc12 [Example 9, 1,3-Dimethyl-5-(4-nitrophenyl)pyrazolo[4,3-d]pyrimidine-7-one] |  | 1% | 4% |  |  |  |  | -3% | 4% |  | 1% | 2% |  | 0% | 5% |  |  |
| 1540 nM | 33% | 6% | 9% | Cc1nn(C)c2c(=O)[nH]c(-c3cccc(N)c3)nc12 [Example 12, 1,3-Dimethyl-5-(3-aminophenyl)pyrazolo[4,3-d]pyrimidine-7-one] |  | -8% | -1% |  |  |  |  | -8% | -12% |  |  |  |  | -10% | -19% |  |  |
| 1200 nM | 50% | 30% | 18% | Cc1nn(C)c2c(=O)[nH]c(-c3cccc([N+](=O)[O-])c3)nc12 [Example 13, 1,3-Dimethyl-5-(3-nitrophenyl)pyrazolo[4,3-d]pyrimidine-7-one] | -2% | 2% | 6% | -4% | 4% | 5% | -7% | -3% | -7% | -12% | -3% | 6% | 101% |  |  |  |  |
